In patent US10570168B2, “2′ and/or 5′ amino-acid ester phosphoramidate 3′-deoxy adenosine derivatives as anti- cancer compounds” (NuCana plc, priority 2014, dated 2020):

How the values were obtained:
Assay type in all cases: cell-based
[1] = tested on: MCF-7; test: CellTiterGlo viability assay, initial screening; conditions: Homo sapiens, MCF7, 72 h, read-out: IC50 (relative IC50)
Protocol: (§1) In vitro viability assays were performed to assess the effects of compounds on cell viability in 7 selected cell lines over 72 hr using the CellTiterGlo (CTG, Promega-G7573) assay. The tests were performed in duplicates with treatment of compounds at 9 points, 3.16 folds titration in 96 well plates over ˜72 hr. The compound starting concentrations were […]. Cell viability assay using CellTiterGlo in 96-well plate were performed. The compound treatment was 72 hrs, under standard growth conditions, and in duplicate. Compounds were dissolved to 40 mM with thawed […]. Compounds were serially diluted at 3.16 fold in thawed DMSO, and warmed to 37° C. before being dissolved in media (2 μl+200 μl). After compounds were dissolved in media (media was also warmed to 37° C.). Media containing compounds were warmed to 37° C. in incubator and then compounds in media were added to cell plates (50 μl+50 μl), in duplicates. The compounds final concentrations were from […] to 19.9 nM. All compound solubilities were checked and recorded again, then the plates were transferred to CO2 tissue culture incubator immediately and incubated for 3 days. DMSO final concentration is 0.5%.

[2] = tested on: HL-60; test: CellTiterGlo viability assay, initial screening; conditions: Homo sapiens, HL-60, 72 h, read-out: IC50 (relative IC50)
Protocol: as §1

[3] = tested on: K562; test: CellTiterGlo viability assay, initial screening; conditions: Homo sapiens, K562, 72 h, read-out: IC50 (relative IC50)
Protocol: as §1

[4] = tested on: HepG2; test: CellTiterGlo viability assay, initial screening; conditions: Homo sapiens, HepG2, 72 h, read-out: IC50 (relative IC50)
Protocol: as §1

[5] = tested on: KG-1; test: CellTiterGlo viability assay, initial screening; conditions: Homo sapiens, KG-1, 72 h, read-out: IC50 (relative IC50)
Protocol: as §1

[6] = tested on: MOLT-4; test: CellTiterGlo viability assay, initial screening; conditions: Homo sapiens, MOLT-4, 72 h, read-out: IC50 (relative IC50)
Protocol: as §1

[7] = tested on: BxPC-3; test: Solid tumour and haematological malignancy assay (CellTiterGlo); conditions: Homo sapiens, BXPC-3, 72 h, read-out: IC50 (absolute IC50)
Protocol: (§2) In vitro viability assay were performed to assess the effects of compounds on cell viability in selected cell lines over 72 hr using the CellTiterGlo (CTG, Promega-G7573) assay. The tests were performed in duplicates with treatment of compounds at 9 points, 3.16 folds titration in 96 well plates over ˜72 hr. The compound starting concentrations were […]. Cell viability assay using CellTiterGlo in 96-well plate were performed. Compound treatment 72 hrs, standard growth conditions, duplicates. Compounds were dissolved to 40 mM with thawed […]. Compounds were serially diluted at 3.16 fold in thawed DMSO, and warmed to 37° C. before being dissolved in media ([…]). After compounds were dissolved in media, media containing compounds were warmed to 37° C. in incubator and then compounds in media were added to cell plates ([…]) in duplicates. The compounds' final concentrations were from […] to 19.9 nM. All compound solubilities were checked and recorded again, then the plates were transferred to CO2 tissue culture incubator immediately and incubated for 3 days. DMSO final concentration is 0.5%.

[8] = tested on: Jurkat; test: as above; conditions: Homo sapiens, 72 h, read-out: IC50 (absolute IC50)
Protocol: as §2

[9] = tested on: Z138; test: as above; conditions: Homo sapiens, Z-138, 72 h; for IC50: read-out: IC50 (absolute IC50); for Emax: read-out: MI %
Protocol: as §2

[10] = tested on: MV4-11; test: as above; conditions: Homo sapiens, MV4-11, 72 h; for IC50: read-out: IC50 (absolute IC50); for Emax: read-out: MI %
Protocol: as §2

[11] = tested on: SW620; test: as above; conditions: Homo sapiens, SW-620, 72 h; for IC50: read-out: IC50 (absolute IC50); for Emax: read-out: MI %
Protocol: as §2

[12] = tested on: HS445; test: as above; conditions: Hs 445, 72 h; for IC50: read-out: IC50 (absolute IC50); for Emax: read-out: MI %
Protocol: as §2

[13] = tested on: RPMI-8226; test: as above; conditions: Homo sapiens, RPMI-8226, 72 h; for IC50: read-out: IC50 (absolute IC50); for Emax: read-out: MI %
Protocol: as §2

[14] = tested on: NCI-H929; test: as above; conditions: Homo sapiens, NCI-H929, 72 h; for IC50: read-out: IC50 (absolute IC50); for Emax: read-out: MI %
Protocol: as §2

[15] = tested on: RL; test: as above; conditions: Homo sapiens, 72 h; for IC50: read-out: IC50 (absolute IC50); for Emax: read-out: MI %
Protocol: as §2

[16] = tested on: MOLT-4; test: as above; conditions: Homo sapiens, MOLT-4, 72 h; for IC50: read-out: IC50 (absolute IC50); for Emax: read-out: MI %
Protocol: as §2

[17] = tested on: THP-1; test: as above; conditions: Homo sapiens, THP-1, 72 h; for IC50: read-out: IC50 (absolute IC50); for Emax: read-out: MI %
Protocol: as §2

[18] = tested on: K562; test: as above; conditions: Homo sapiens, K562, 72 h; for IC50: read-out: IC50 (absolute IC50); for Emax: read-out: MI %
Outline: (§3)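 Using duplicate wells at 0.5% final DMSO, compound effect on viability is determined by ATP-based CellTiterGlo luminescence following a 3-day incubation at 37° C.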

[19] = tested on: KG-1; test: as above; conditions: Homo sapiens, KG-1, 72 h; for IC50: read-out: IC50 (absolute IC50); for Emax: read-out: MI %
Outline: as §3

[20] = tested on: MCF7; test: as above; conditions: Homo sapiens, MCF7, 72 h; for IC50: read-out: IC50 (absolute IC50); for Emax: read-out: MI %
Outline: as §3

[21] = tested on: HEL92.1.7; test: as above; conditions: Homo sapiens, HEL 92.1.7, 72 h; for IC50: read-out: IC50 (absolute IC50); for Emax: read-out: MI %
Outline: as §3

Row | Compound | IC50 [1] | IC50 [2] | IC50 [3] | IC50 [4] | IC50 [5] | IC50 [6] | IC50 [7] | IC50 [8] | IC50 [9] | IC50 [10] | Emax [10] | IC50 [11] | IC50 [12] | IC50 [13] | IC50 [14] | Emax [14] | IC50 [15] | IC50 [16] | IC50 [17] | IC50 [18] | further results
1 | C[C@H](NP(=O)(OC[C@@H]1CC(O)[C@H](n2cnc3c(N)ncnc32)O1)Oc1ccccc1)C(=O)OCc1ccccc1 (stereo partly drawn) [Compound A, 3′-deoxyadenosine-5′-O-[phenyl(benzyloxy-L-alaninyl)] phosphate] | 0.1 to 5 µM | 5 to 15 µM | 0.1 to 5 µM | 5 to 15 µM | 5 to 15 µM | 0.1 to 5 µM | 15 to 100 µM | 0.1 to 5 µM | 15 to 100 µM | 0.1 to 5 µM | 99% | 15 to 100 µM | 15 to 100 µM | 5 to 15 µM | 5 to 15 µM | 100% | 0.1 to 5 µM | 0.1 to 5 µM | 15 to 100 µM | 0.1 to 5 µM | Emax [9]: 95%; Emax [11]: 85%; Emax [12]: 98%; Emax [13]: 96%; Emax [15]: 93%; Emax [16]: 98%; Emax [17]: 74%; Emax [18]: 96%; IC50 [19]: 15 to 100 µM; Emax [19]: 100%; IC50 [20]: 0.1 to 5 µM; Emax [20]: 99%; IC50 [21]: 5 to 15 µM; Emax [21]: 100%
2 | CCOC(=O)CCc1ccccc1OP(=O)(N[C@@H](C)C(=O)OCc1ccccc1)OC[C@@H]1C[C@@H](O)[C@H](n2cnc3c(N)ncnc32)O1 (stereo partly drawn) [F, (2S)-benzyl 2-(((((2S,4R,5R)-5-(6-amino-9H-purin-9-yl)-4-hydroxytetrahydrofuran-2-yl)methoxy)(2-(3-ethoxy-3-oxopropyl)phenoxy)phosphoryl)amino)propanoate] | 5 to 15 µM | 15 to 100 µM | 15 to 100 µM | 15 to 100 µM | 15 to 100 µM | 0.1 to 5 µM | 15 to 100 µM | 0.1 to 5 µM | 15 to 100 µM | 0.1 to 5 µM | 100% | 15 to 100 µM | 15 to 100 µM | 15 to 100 µM | 5 to 15 µM | 100% | 5 to 15 µM | 0.1 to 5 µM | 15 to 100 µM | 0.1 to 5 µM | Emax [11]: 90%; Emax [15]: 90%; Emax [17]: 100%; IC50 [19]: 15 to 100 µM; IC50 [20]: 5 to 15 µM; IC50 [21]: 5 to 15 µM
3 | C[C@H](NP(=O)(OC[C@@H]1C[C@@H](O)[C@H](n2cnc3c(N)ncnc32)O1)Oc1cccc2ccccc12)C(=O)OCc1ccccc1 (stereo partly drawn) [B, (2S)-benzyl 2-(((((2S,4R,5R)-5-(6-amino-9H-purin-9-yl)-4-hydroxytetrahydrofuran-2-yl)methoxy)(naphthalen-1-yloxy)phosphoryl)amino)propanoate] | 0.1 to 5 µM | 5 to 15 µM | 0.1 to 5 µM | 5 to 15 µM | 5 to 15 µM | 0.1 to 5 µM | 5 to 15 µM | 0.1 to 5 µM | 5 to 15 µM | 0.1 to 5 µM | 99% | 5 to 15 µM | 5 to 15 µM | 5 to 15 µM | 0.1 to 5 µM | 99% | 0.1 to 5 µM | 0.1 to 5 µM | 15 to 100 µM | 0.1 to 5 µM | Emax [9]: 100%; IC50 [19]: 5 to 15 µM; IC50 [20]: 0.1 to 5 µM; IC50 [21]: 0.1 to 5 µM
4 | Nc1ncnc2c1ncn2[C@@H]1O[C@H](COP(=O)(NCC(=O)OCc2ccccc2)Oc2ccccc2)C[C@H]1O (stereo partly drawn) [C, Benzyl 2-(((((2S,4R,5R)-5-(6-amino-9H-purin-9-yl)-4-hydroxytetrahydrofuran-2-yl)methoxy)(phenoxy)phosphoryl)amino)acetate] | 5 to 15 µM | 15 to 100 µM | 5 to 15 µM | 15 to 100 µM | > 100 µM | 0.1 to 5 µM | 15 to 100 µM | 5 to 15 µM | 5 to 15 µM | 5 to 15 µM | 106% | 15 to 100 µM | 15 to 100 µM | 15 to 100 µM | 5 to 15 µM | 104% | 5 to 15 µM | 0.1 to 5 µM | 15 to 100 µM | 5 to 15 µM | Emax [9]: 100%; Emax [11]: 100%; Emax [12]: 102%; Emax [13]: 103%; Emax [15]: 100%; Emax [16]: 92%; Emax [17]: 99%; Emax [18]: 100%; IC50 [19]: 15 to 100 µM; Emax [19]: 102%; IC50 [20]: 0.1 to 5 µM; Emax [20]: 102%; IC50 [21]: 0.1 to 5 µM; Emax [21]: 99%
